The nature of this data set: pharmacokinetic pilot, continuous infusion in one animal. Type of data set: in vivo. The settings on record: pig, whole blood, intravenous, 0.1 mg/kg/h, time 240 minutes (STOP INFUSION), read-out: Conc in blood 950.

One compound from paper PMC12457078, “Inhibition of soluble epoxide hydrolase in endotoxin induced pig lung injury” (Frontiers in Pharmacology, 2025) can be followed below.

With `CCOCCOCCOCCCCCNC(=O)NC12CC3CC(CC(C3)C1)C2` [Compound 950], the concentration at 240 min was determined as 199 ng/mL.
